Data from the kinase profiling compilation of Christmann-Franck et al. (2016).

How the values were obtained:
Test in all cases: KINOMEscan competition binding
Details in all cases: compound 10.0 µM
DSTYK (human) = DSTYK (human) (UniProt Q6XUX3)
SGK3 (human) = SGK3 (human) (UniProt Q96BR1)
CSNK1A1 (human) = CSNK1A1 (human) (UniProt P48729)
ERBB3 (human) = ERBB3 (human) (UniProt P21860)
STK39 (human) = STK39 (human) (UniProt Q9UEW8)
NEK11 (human) = NEK11 (human) (UniProt Q8NG66)
GRK1 (human) = GRK1 (human) (UniProt Q15835)
IRAK1 (human) = IRAK1 (human) (UniProt P51617)
MAP3K13 (human) = MAP3K13 (human) (UniProt O43283)
TIE1 (human) = TIE1 (human) (UniProt P35590)
MAP3K15 (human) = MAP3K15 (human) (UniProt Q6ZN16)
HUNK (human) = HUNK (human) (UniProt P57058)
EIF2AK1 (human) = EIF2AK1 (human) (UniProt Q9BQI3)
HIPK3 (human) = HIPK3 (human) (UniProt Q9H422)
MAP2K5 (human) = MAP2K5 (human) (UniProt Q13163)
[1] = system: PIK3CA (human), P42336 [E545K]
GRK7 (human) = GRK7 (human) (UniProt Q8WTQ7)
RPS6KB1 (human) = RPS6KB1 (human) (UniProt P23443)
MAST1 (human) = MAST1 (human) (UniProt Q9Y2H9)
VRK2 (human) = VRK2 (human) (UniProt Q86Y07)
CDK2 (human) = CDK2 (human) (UniProt P24941)
PLK2 (human) = PLK2 (human) (UniProt Q9NYY3)
[2] = system: PIK3CA (human), P42336 [H1047Y]
CPK1 (P.falciparum) = system: CPK1 (P.falciparum)
CASK (human) = CASK (human) (UniProt O14936)
MAK (human) = MAK (human) (UniProt P20794)
TAOK2 (human) = TAOK2 (human) (UniProt Q9UL54)
YSK4 (human) = YSK4 (human) (UniProt Q56UN5)
PIK3CA (human) = PIK3CA (human) (UniProt P42336)
PIP5K1C (human) = PIP5K1C (human) (UniProt O60331)
PIK3C2G (human) = PIK3C2G (human) (UniProt O75747)
CRK2 (P.falciparum) = CRK2 (P.falciparum) (UniProt P61075)
GRK4 (human) = GRK4 (human) (UniProt P32298)
CDKL3 (human) = CDKL3 (human) (UniProt Q8IVW4)
CDKL5 (human) = CDKL5 (human) (UniProt O76039)
IRAK4 (human) = IRAK4 (human) (UniProt Q9NWZ3)
HIPK2 (human) = HIPK2 (human) (UniProt Q9H2X6)
EGFR (human) = EGFR (human) (UniProt P00533)
[3] = system: EGFR (human), P00533 [L861Q]
[4] = system: EGFR (human), P00533 [P753S; 747-752 del]

Sequence of MAK (human) (P20794 whole entry, looked up): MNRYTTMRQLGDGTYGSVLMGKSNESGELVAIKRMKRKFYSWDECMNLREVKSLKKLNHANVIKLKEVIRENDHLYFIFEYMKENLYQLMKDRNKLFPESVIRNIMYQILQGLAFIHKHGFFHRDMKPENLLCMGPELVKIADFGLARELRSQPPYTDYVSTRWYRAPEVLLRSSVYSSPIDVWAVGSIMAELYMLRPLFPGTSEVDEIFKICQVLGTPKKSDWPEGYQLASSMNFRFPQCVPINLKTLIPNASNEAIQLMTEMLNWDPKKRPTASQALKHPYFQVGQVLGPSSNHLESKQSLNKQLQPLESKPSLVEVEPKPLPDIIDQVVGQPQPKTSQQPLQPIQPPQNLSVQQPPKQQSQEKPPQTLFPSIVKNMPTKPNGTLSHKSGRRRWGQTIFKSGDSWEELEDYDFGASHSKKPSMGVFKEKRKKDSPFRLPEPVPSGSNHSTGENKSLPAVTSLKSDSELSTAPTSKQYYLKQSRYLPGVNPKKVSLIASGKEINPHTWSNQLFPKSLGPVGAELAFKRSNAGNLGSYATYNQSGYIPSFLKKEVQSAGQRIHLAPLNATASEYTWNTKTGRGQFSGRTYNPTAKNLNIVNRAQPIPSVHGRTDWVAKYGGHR
Sequence of CDKL5 (human) (O76039 whole entry, looked up): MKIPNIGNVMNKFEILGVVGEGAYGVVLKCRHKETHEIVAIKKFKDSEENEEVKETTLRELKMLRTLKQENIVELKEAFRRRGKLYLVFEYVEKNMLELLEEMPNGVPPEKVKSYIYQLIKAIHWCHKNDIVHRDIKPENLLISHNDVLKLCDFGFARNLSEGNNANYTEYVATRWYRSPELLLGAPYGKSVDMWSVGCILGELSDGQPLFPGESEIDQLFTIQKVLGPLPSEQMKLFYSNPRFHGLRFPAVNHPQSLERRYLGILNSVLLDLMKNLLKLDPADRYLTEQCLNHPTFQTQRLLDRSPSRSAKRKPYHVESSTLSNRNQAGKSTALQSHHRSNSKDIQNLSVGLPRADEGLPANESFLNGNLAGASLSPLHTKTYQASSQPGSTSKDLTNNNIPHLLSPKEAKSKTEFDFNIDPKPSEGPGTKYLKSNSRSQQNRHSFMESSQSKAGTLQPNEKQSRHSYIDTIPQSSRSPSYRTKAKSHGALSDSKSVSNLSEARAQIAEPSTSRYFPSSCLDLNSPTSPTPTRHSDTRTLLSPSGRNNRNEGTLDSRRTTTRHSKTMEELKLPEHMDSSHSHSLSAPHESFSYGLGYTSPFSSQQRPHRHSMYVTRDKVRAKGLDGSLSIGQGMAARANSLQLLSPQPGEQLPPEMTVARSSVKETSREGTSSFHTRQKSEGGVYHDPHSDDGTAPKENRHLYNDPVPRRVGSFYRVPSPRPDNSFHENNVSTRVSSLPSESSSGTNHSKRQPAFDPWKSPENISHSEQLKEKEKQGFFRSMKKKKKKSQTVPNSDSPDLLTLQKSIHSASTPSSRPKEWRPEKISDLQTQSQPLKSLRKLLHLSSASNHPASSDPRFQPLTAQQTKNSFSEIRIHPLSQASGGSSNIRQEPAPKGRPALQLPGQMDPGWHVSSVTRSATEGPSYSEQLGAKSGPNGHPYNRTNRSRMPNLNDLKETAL
Sequence of PIK3CA (human) (P42336 whole entry, looked up): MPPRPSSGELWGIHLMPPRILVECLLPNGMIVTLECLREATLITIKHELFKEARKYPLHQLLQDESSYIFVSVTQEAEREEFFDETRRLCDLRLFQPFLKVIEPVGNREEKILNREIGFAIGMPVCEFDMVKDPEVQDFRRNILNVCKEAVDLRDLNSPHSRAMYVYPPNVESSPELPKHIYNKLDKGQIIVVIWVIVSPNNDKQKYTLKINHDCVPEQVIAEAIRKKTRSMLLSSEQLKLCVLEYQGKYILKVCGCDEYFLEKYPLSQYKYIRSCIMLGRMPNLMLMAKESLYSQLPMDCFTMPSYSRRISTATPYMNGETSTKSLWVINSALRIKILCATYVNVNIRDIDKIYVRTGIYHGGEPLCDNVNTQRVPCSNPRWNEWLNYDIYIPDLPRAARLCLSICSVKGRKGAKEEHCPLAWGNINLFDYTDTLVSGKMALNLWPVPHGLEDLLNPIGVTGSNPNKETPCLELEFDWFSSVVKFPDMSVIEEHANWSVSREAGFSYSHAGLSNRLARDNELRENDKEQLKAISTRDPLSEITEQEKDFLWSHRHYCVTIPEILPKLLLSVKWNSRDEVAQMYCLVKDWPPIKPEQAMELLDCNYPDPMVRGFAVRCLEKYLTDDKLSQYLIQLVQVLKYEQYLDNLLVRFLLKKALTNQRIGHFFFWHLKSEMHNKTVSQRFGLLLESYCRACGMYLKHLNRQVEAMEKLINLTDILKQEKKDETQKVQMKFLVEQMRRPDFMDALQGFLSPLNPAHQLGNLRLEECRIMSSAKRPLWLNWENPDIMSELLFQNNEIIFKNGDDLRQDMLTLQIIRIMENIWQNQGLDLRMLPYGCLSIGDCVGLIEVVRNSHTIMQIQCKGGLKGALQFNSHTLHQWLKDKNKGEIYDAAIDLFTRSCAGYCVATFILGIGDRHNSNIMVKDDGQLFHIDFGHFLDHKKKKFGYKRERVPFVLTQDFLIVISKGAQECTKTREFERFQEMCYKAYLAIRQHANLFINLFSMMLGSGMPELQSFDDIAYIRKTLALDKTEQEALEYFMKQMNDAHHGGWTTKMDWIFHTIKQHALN
Sequence of IRAK1 (human) (P51617 whole entry, looked up): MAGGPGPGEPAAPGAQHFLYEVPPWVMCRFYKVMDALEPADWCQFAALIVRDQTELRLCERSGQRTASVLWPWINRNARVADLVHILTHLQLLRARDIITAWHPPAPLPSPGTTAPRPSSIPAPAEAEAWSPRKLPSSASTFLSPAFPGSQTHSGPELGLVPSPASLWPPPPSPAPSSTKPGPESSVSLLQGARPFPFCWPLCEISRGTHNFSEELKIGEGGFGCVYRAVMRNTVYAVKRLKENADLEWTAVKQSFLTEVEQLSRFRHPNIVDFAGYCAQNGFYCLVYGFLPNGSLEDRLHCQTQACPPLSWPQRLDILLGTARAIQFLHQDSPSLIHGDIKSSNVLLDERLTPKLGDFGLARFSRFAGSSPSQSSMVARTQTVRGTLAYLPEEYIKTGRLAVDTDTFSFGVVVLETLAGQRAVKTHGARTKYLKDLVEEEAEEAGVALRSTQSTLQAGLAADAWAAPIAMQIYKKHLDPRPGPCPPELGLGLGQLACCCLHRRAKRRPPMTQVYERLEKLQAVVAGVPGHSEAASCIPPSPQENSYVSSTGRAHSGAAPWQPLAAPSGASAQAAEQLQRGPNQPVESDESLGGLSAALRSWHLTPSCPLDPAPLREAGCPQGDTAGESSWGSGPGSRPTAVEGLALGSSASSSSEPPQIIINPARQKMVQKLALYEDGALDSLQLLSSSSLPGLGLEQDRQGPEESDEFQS
Sequence of PIP5K1C (human) (O60331 whole entry, looked up): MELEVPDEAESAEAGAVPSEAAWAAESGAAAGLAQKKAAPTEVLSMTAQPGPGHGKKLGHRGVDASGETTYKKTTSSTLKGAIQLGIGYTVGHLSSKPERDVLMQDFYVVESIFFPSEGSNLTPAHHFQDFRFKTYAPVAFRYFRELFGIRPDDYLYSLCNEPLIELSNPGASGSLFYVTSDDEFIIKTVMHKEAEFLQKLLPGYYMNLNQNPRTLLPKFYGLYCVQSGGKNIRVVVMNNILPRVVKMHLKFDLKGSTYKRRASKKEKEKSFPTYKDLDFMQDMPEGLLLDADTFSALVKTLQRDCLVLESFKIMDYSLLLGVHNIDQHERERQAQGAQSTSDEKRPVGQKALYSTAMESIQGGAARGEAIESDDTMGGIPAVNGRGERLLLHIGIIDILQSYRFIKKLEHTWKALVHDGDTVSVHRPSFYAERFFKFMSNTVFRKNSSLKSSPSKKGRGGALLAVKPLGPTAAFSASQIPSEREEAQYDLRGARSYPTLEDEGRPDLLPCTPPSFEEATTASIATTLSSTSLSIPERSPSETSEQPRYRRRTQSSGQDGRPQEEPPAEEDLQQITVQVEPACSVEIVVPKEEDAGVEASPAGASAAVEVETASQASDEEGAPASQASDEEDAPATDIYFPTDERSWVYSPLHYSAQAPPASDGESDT
Sequence of SGK3 (human) (Q96BR1 whole entry, looked up): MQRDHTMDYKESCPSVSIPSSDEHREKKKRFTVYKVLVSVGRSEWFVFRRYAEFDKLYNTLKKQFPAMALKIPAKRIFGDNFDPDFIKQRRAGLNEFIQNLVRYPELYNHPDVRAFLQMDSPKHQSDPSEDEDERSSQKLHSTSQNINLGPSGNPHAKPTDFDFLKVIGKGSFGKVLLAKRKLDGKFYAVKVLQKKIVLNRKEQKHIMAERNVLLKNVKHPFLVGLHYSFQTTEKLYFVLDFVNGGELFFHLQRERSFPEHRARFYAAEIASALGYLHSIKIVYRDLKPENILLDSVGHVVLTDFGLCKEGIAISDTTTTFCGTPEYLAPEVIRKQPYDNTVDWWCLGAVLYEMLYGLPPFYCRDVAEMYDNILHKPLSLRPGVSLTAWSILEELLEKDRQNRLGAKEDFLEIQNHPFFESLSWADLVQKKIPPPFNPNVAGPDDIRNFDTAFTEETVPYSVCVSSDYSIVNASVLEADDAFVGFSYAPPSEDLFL
Sequence of CSNK1A1 (human) (P48729 whole entry, looked up): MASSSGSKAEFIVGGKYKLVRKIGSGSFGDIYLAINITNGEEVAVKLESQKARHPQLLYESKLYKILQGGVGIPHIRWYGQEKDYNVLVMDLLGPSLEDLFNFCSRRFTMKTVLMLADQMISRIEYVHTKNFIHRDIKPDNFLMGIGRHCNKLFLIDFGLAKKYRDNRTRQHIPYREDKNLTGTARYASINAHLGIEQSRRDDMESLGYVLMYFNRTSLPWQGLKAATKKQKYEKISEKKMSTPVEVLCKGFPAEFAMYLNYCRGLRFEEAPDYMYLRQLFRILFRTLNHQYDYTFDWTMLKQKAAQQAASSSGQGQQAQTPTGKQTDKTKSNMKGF
Sequence of PIK3CA (human), P42336 [H1047Y] (P42336 whole entry H1047Y, looked up): as the sequence (P42336 whole entry, looked up) above, with H1047Y counted along it
Sequence of PIK3CA (human), P42336 [E545K] (P42336 whole entry E545K, looked up): as the sequence (P42336 whole entry, looked up) above, with E545K counted along it

SMILES	kinase still bound, per cent of control (DSTYK (human))	kinase still bound, per cent of control (SGK3 (human))	kinase still bound, per cent of control (CSNK1A1 (human))	kinase still bound, per cent of control (ERBB3 (human))	kinase still bound, per cent of control (STK39 (human))	kinase still bound, per cent of control (NEK11 (human))	kinase still bound, per cent of control (GRK1 (human))	kinase still bound, per cent of control (IRAK1 (human))	kinase still bound, per cent of control (MAP3K13 (human))	kinase still bound, per cent of control (MAP3K15 (human))	kinase still bound, per cent of control (HUNK (human))	kinase still bound, per cent of control (EIF2AK1 (human))	kinase still bound, per cent of control (HIPK3 (human))	kinase still bound, per cent of control (MAP2K5 (human))	kinase still bound, per cent of control [1]	kinase still bound, per cent of control (GRK7 (human))	kinase still bound, per cent of control (RPS6KB1 (human))	kinase still bound, per cent of control (MAST1 (human))	kinase still bound, per cent of control (VRK2 (human))	kinase still bound, per cent of control (CDK2 (human))	also measured
N#Cc1c(NC(=O)c2cccc3ccccc23)sc2c1CCCC2	100%	92%	100%	100%	100%	100%	100%	100%	83%	100%	95%	100%	43%	100%	88%	88%	90%	100%	100%	95%	kinase still bound, per cent of control (TIE1 (human)): 95%; kinase still bound, per cent of control (PLK2 (human)): 100%; kinase still bound, per cent of control [2]: 100%; kinase still bound, per cent of control (CPK1 (P.falciparum)): 81%; kinase still bound, per cent of control (CASK (human)): 71%; kinase still bound, per cent of control (MAK (human)): 56%; kinase still bound, per cent of control (TAOK2 (human)): 100%; kinase still bound, per cent of control (YSK4 (human)): 100%; kinase still bound, per cent of control (PIK3CA (human)): 99%; kinase still bound, per cent of control (PIP5K1C (human)): 100%; kinase still bound, per cent of control (PIK3C2G (human)): 87%; kinase still bound, per cent of control (CRK2 (P.falciparum)): 100%; kinase still bound, per cent of control (GRK4 (human)): 100%; kinase still bound, per cent of control (CDKL3 (human)): 82%; kinase still bound, per cent of control (CDKL5 (human)): 70%; kinase still bound, per cent of control (IRAK4 (human)): 100%; kinase still bound, per cent of control (HIPK2 (human)): 100%
C[C@@H](Oc1cc(-n2cnc3ccc(CN4CCN(C)CC4)cc32)sc1C(N)=O)c1ccccc1C(F)(F)F	34%	28%	91%	100%	11%	100%	50%	23%	87%	24%	78%	94%	37%	43%	71%	33%	52%	3.1%	100%	85%	kinase still bound, per cent of control (EGFR (human)): 87%; kinase still bound, per cent of control [3]: 100%; kinase still bound, per cent of control [4]: 97%; kinase still bound, per cent of control (PLK2 (human)): 2.6%; kinase still bound, per cent of control [2]: 32%; kinase still bound, per cent of control (CPK1 (P.falciparum)): 62%; kinase still bound, per cent of control (CASK (human)): 50%; kinase still bound, per cent of control (MAK (human)): 100%; kinase still bound, per cent of control (TAOK2 (human)): 94%; kinase still bound, per cent of control (YSK4 (human)): 12%; kinase still bound, per cent of control (PIK3CA (human)): 52%; kinase still bound, per cent of control (PIP5K1C (human)): 18%; kinase still bound, per cent of control (PIK3C2G (human)): 40%; kinase still bound, per cent of control (CRK2 (P.falciparum)): 100%; kinase still bound, per cent of control (GRK4 (human)): 16%; kinase still bound, per cent of control (CDKL3 (human)): 100%; kinase still bound, per cent of control (CDKL5 (human)): 31%; kinase still bound, per cent of control (IRAK4 (human)): 43%; kinase still bound, per cent of control (HIPK2 (human)): 36%
O=C(NOC[C@H](O)CO)c1ccc(F)c(F)c1Nc1ccc(I)cc1F	100%	89%	100%	100%	96%	91%	100%	100%	86%	100%	100%	100%	49%	86%	53%	100%	100%	100%	100%	91%	kinase still bound, per cent of control (TIE1 (human)): 54%; kinase still bound, per cent of control [4]: 59%; kinase still bound, per cent of control (PLK2 (human)): 100%; kinase still bound, per cent of control [2]: 57%; kinase still bound, per cent of control (CPK1 (P.falciparum)): 78%; kinase still bound, per cent of control (CASK (human)): 67%; kinase still bound, per cent of control (MAK (human)): 100%; kinase still bound, per cent of control (TAOK2 (human)): 100%; kinase still bound, per cent of control (YSK4 (human)): 100%; kinase still bound, per cent of control (PIK3CA (human)): 56%; kinase still bound, per cent of control (PIP5K1C (human)): 100%; kinase still bound, per cent of control (PIK3C2G (human)): 48%; kinase still bound, per cent of control (CRK2 (P.falciparum)): 100%; kinase still bound, per cent of control (GRK4 (human)): 100%; kinase still bound, per cent of control (CDKL3 (human)): 98%; kinase still bound, per cent of control (CDKL5 (human)): 67%; kinase still bound, per cent of control (IRAK4 (human)): 100%
O=C(O)c1ccc(Nc2ncc3c(n2)-c2ccc(Cl)cc2C(c2c(F)cccc2F)=NC3)cc1	100%	100%	73%	74%	100%	100%	100%	93%	100%	82%	59%	89%	80%	80%	100%	31%	54%	100%	100%	84%	kinase still bound, per cent of control (EGFR (human)): 43%; kinase still bound, per cent of control [4]: 28%; kinase still bound, per cent of control (PLK2 (human)): 29%; kinase still bound, per cent of control [2]: 27%; kinase still bound, per cent of control (CPK1 (P.falciparum)): 63%; kinase still bound, per cent of control (CASK (human)): 91%; kinase still bound, per cent of control (MAK (human)): 78%; kinase still bound, per cent of control (TAOK2 (human)): 94%; kinase still bound, per cent of control (YSK4 (human)): 62%; kinase still bound, per cent of control (PIK3CA (human)): 100%; kinase still bound, per cent of control (PIP5K1C (human)): 49%; kinase still bound, per cent of control (PIK3C2G (human)): 16%; kinase still bound, per cent of control (CRK2 (P.falciparum)): 100%; kinase still bound, per cent of control (GRK4 (human)): 100%; kinase still bound, per cent of control (CDKL3 (human)): 100%; kinase still bound, per cent of control (CDKL5 (human)): 100%; kinase still bound, per cent of control (IRAK4 (human)): 100%; kinase still bound, per cent of control (HIPK2 (human)): 100%
